Results as given in ChEMBL document CHEMBL1201862, “PubChem BioAssay data set” (2004).
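These data come from cells grown in 96-well plates and exposed to compound for 48 hours at five concentrations. GI50: concentration for 50% inhibition of growth.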 Calls of active or inactive are those of the source. No stated cut-off is given here; in the data, active = GI50 up to about 1.1 µM and inactive = higher.

Assays:
Test in all cases: DTP human tumour cell line panel, 48 h
[1] = tested on: KM-20L2
[2] = tested on: NCI-H23
[3] = tested on: UACC-62
[4] = tested on: HCC 2998
[5] = tested on: DLD-1
[6] = tested on: XF498
[7] = tested on: 786-0
[8] = tested on: NCI-H226
[9] = tested on: SF-539
[10] = tested on: ACHN
[11] = tested on: UACC-257
[12] = tested on: DMS-273
[13] = tested on: NCI-H460
[14] = tested on: CAKI-1
[15] = tested on: EKVX
[16] = tested on: IGROV-1
[17] = tested on: NCI-H522
[18] = tested on: HOP-92
[19] = tested on: SK-MEL-2
[20] = tested on: COLO 205
[21] = tested on: A549
[22] = tested on: OVCAR-8
[23] = tested on: K562
[24] = tested on: U-251
[25] = tested on: HCT-116
[26] = tested on: MOLT-4
[27] = tested on: DMS-114
[28] = tested on: OVCAR-3
[29] = tested on: HT-29
[30] = tested on: TK-10
[31] = tested on: SF-295
[32] = tested on: Malme-3M
[33] = tested on: OVCAR-5
[34] = tested on: SNB-19
[35] = tested on: SK-OV-3
[36] = tested on: UO-31
[37] = tested on: CCRF-CEM
[38] = tested on: SK-MEL-28
[39] = tested on: SF-268
[40] = tested on: RXF 631
[41] = tested on: KM12
[42] = tested on: SN12C
[43] = tested on: LOX IMVI
[44] = tested on: SW-620
[45] = tested on: SNB-75
[46] = tested on: M14
[47] = tested on: HCT-15
[48] = tested on: RXF 393
[49] = tested on: LXFL 529
[50] = tested on: RPMI-8226
[51] = tested on: HOP-18
[52] = tested on: HOP-62
[53] = tested on: HL-60
[54] = tested on: SK-MEL-5
[55] = tested on: M19-MEL
[56] = tested on: SR

**Q.** How did the GI50 [1] turn out when `C=C(CS(=O)(=O)c1ccccc1)C(=O)OCC` was run?
**A.** 21.8 µM (inactive)

**Q.** What about the GI50 [2] of the same compound?
**A.** 18.2 µM (inactive)

**Q.** And the GI50 [3]?
**A.** 4.74 µM (inactive)

**Q.** What about the GI50 [4] of the same compound?
**A.** 19.4 µM (inactive)

**Q.** What about the GI50 [5] of the same compound?
**A.** 4.49 µM (inactive)

**Q.** And the GI50 [6]?
**A.** 19.2 µM (inactive)

**Q.** What about the GI50 [7] of the same compound?
**A.** 17.3 µM (inactive)

**Q.** And the GI50 [8]?
**A.** 25.1 µM (inactive)

**Q.** What about the GI50 [9] of the same compound?
**A.** 17.1 µM (inactive)

**Q.** What about the GI50 [10] of the same compound?
**A.** 15.5 µM (inactive)

**Q.** What about the GI50 [11] of the same compound?
**A.** 12.8 µM (inactive)

**Q.** What about the GI50 [12] of the same compound?
**A.** 16.4 µM (inactive)

**Q.** And the GI50 [13]?
**A.** 18.7 µM (inactive)

**Q.** What about the GI50 [14] of the same compound?
**A.** 18 µM (inactive)

**Q.** What about the GI50 [15] of the same compound?
**A.** 19.7 µM (inactive)

**Q.** And the GI50 [16]?
**A.** 19 µM (inactive)

**Q.** What about the GI50 [17] of the same compound?
**A.** 3.41 µM (inactive)

**Q.** And the GI50 [18]?
**A.** 21.4 µM (inactive)

**Q.** And the GI50 [19]?
**A.** 15.6 µM (inactive)

**Q.** What about the GI50 [20] of the same compound?
**A.** 18.9 µM (inactive)

**Q.** What about the GI50 [21] of the same compound?
**A.** 18.5 µM (inactive)

**Q.** And the GI50 [22]?
**A.** 10.5 µM (inactive)

**Q.** And the GI50 [23]?
**A.** 5.33 µM (inactive)

**Q.** What about the GI50 [24] of the same compound?
**A.** 16.9 µM (inactive)

**Q.** And the GI50 [25]?
**A.** 13.4 µM (inactive)

**Q.** What about the GI50 [26] of the same compound?
**A.** 2.81 µM (inactive)

**Q.** And the GI50 [27]?
**A.** 5.37 µM (inactive)

**Q.** What about the GI50 [28] of the same compound?
**A.** 13.4 µM (inactive)

**Q.** What about the GI50 [29] of the same compound?
**A.** 11.2 µM (inactive)

**Q.** And the GI50 [30]?
**A.** 17.4 µM (inactive)

**Q.** What about the GI50 [31] of the same compound?
**A.** 18.1 µM (inactive)

**Q.** What about the GI50 [32] of the same compound?
**A.** 16.1 µM (inactive)

**Q.** And the GI50 [33]?
**A.** 19.6 µM (inactive)

**Q.** What about the GI50 [34] of the same compound?
**A.** 20 µM (inactive)

**Q.** What about the GI50 [35] of the same compound?
**A.** 14.4 µM (inactive)

**Q.** And the GI50 [36]?
**A.** 20 µM (inactive)

**Q.** What about the GI50 [37] of the same compound?
**A.** 2.77 µM (inactive)

**Q.** What about the GI50 [38] of the same compound?
**A.** 15.1 µM (inactive)

**Q.** And the GI50 [39]?
**A.** 19.6 µM (inactive)

**Q.** What about the GI50 [40] of the same compound?
**A.** 1.9 µM (inactive)

**Q.** What about the GI50 [41] of the same compound?
**A.** 16.1 µM (inactive)

**Q.** What about the GI50 [42] of the same compound?
**A.** 16.3 µM (inactive)

**Q.** What about the GI50 [43] of the same compound?
**A.** 10.5 µM (inactive)

**Q.** And the GI50 [44]?
**A.** 10.5 µM (inactive)

**Q.** And the GI50 [45]?
**A.** 17.4 µM (inactive)

**Q.** And the GI50 [46]?
**A.** 11.6 µM (inactive)

**Q.** What about the GI50 [47] of the same compound?
**A.** 12.6 µM

**Q.** What about the GI50 [48] of the same compound?
**A.** 11.7 µM (inactive)

**Q.** And the GI50 [49]?
**A.** 13.4 µM (inactive)

**Q.** `Cc1nc2sccn2c1C(=O)N/N=C1\SCC(=O)N1C` was tested. Which GI50 [50] did it give?
**A.** > 100 µM (inactive)

**Q.** And the GI50 [1]?
**A.** > 100 µM (inactive)

**Q.** And the GI50 [2]?
**A.** > 100 µM (inactive)

**Q.** And the GI50 [3]?
**A.** > 100 µM (inactive)

**Q.** What about the GI50 [4] of the same compound?
**A.** > 100 µM (inactive)

**Q.** What about the GI50 [51] of the same compound?
**A.** 26.3 µM (inactive)

**Q.** What about the GI50 [5] of the same compound?
**A.** > 100 µM (inactive)

**Q.** And the GI50 [6]?
**A.** > 100 µM (inactive)

**Q.** What about the GI50 [7] of the same compound?
**A.** > 100 µM (inactive)

**Q.** What about the GI50 [52] of the same compound?
**A.** > 100 µM (inactive)

**Q.** What about the GI50 [8] of the same compound?
**A.** > 100 µM (inactive)

**Q.** What about the GI50 [9] of the same compound?
**A.** > 100 µM (inactive)

**Q.** What about the GI50 [10] of the same compound?
**A.** > 100 µM (inactive)

**Q.** And the GI50 [11]?
**A.** > 100 µM (inactive)

**Q.** What about the GI50 [12] of the same compound?
**A.** > 100 µM (inactive)

**Q.** And the GI50 [13]?
**A.** > 100 µM (inactive)

**Q.** And the GI50 [14]?
**A.** > 100 µM (inactive)

**Q.** What about the GI50 [15] of the same compound?
**A.** > 100 µM (inactive)

**Q.** And the GI50 [16]?
**A.** > 100 µM (inactive)

**Q.** What about the GI50 [17] of the same compound?
**A.** > 100 µM (inactive)

**Q.** And the GI50 [53]?
**A.** > 100 µM (inactive)

**Q.** What about the GI50 [18] of the same compound?
**A.** > 100 µM (inactive)

**Q.** What about the GI50 [19] of the same compound?
**A.** > 100 µM (inactive)

**Q.** What about the GI50 [20] of the same compound?
**A.** > 100 µM (inactive)

**Q.** And the GI50 [54]?
**A.** > 100 µM (inactive)

**Q.** What about the GI50 [21] of the same compound?
**A.** > 100 µM (inactive)

**Q.** And the GI50 [22]?
**A.** > 100 µM (inactive)

**Q.** What about the GI50 [23] of the same compound?
**A.** > 100 µM (inactive)

**Q.** What about the GI50 [24] of the same compound?
**A.** > 100 µM (inactive)

**Q.** What about the GI50 [25] of the same compound?
**A.** > 100 µM (inactive)

**Q.** And the GI50 [26]?
**A.** > 100 µM (inactive)

**Q.** And the GI50 [27]?
**A.** > 100 µM (inactive)

**Q.** And the GI50 [28]?
**A.** > 100 µM (inactive)

**Q.** And the GI50 [29]?
**A.** > 100 µM (inactive)

**Q.** And the GI50 [30]?
**A.** > 100 µM (inactive)

**Q.** And the GI50 [31]?
**A.** > 100 µM (inactive)

**Q.** And the GI50 [32]?
**A.** > 100 µM (inactive)

**Q.** What about the GI50 [33] of the same compound?
**A.** > 100 µM (inactive)

**Q.** And the GI50 [34]?
**A.** > 100 µM (inactive)

**Q.** What about the GI50 [35] of the same compound?
**A.** > 100 µM (inactive)

**Q.** What about the GI50 [37] of the same compound?
**A.** > 100 µM (inactive)

**Q.** What about the GI50 [38] of the same compound?
**A.** > 100 µM (inactive)

**Q.** And the GI50 [39]?
**A.** > 100 µM (inactive)

**Q.** And the GI50 [40]?
**A.** > 100 µM (inactive)

**Q.** And the GI50 [41]?
**A.** > 100 µM (inactive)

**Q.** And the GI50 [42]?
**A.** > 100 µM (inactive)

**Q.** What about the GI50 [55] of the same compound?
**A.** > 100 µM (inactive)

**Q.** What about the GI50 [43] of the same compound?
**A.** > 100 µM (inactive)

**Q.** And the GI50 [44]?
**A.** > 100 µM (inactive)

**Q.** What about the GI50 [56] of the same compound?
**A.** > 100 µM (inactive)

**Q.** What about the GI50 [47] of the same compound?
**A.** > 100 µM

**Q.** And the GI50 [48]?
**A.** > 100 µM (inactive)

**Q.** What about the GI50 [49] of the same compound?
**A.** > 100 µM (inactive)
